# Columns and labels:
# [1] = system: Plasmid DNA; test: Non-specific plasmid DNA cleavage (hydrolytic conditions), gel electrophoresis; type: biochemical
# Description: The appearance of open circular DNA (form II) and the disappearance of supercoiled DNA (form I) was monitored via gel electrophoresis.
# Metalloligands comprising the transition metal ions Fe, Mn, Co, and Ni were formed by mixing a 10 μM solution of the salts FeSO4, MnCl2, CoSO4, and NiCi2, and an equivalent volume of 10 μM kanamycin A for 12 h at 35 ° C. Complex formation was monitored by thin layer chromatography, using PrOH:Me2CO:NH4OAc (20%(aq)) (1:1:5:0.025) on silica gel plates. […]
# [2] = system: Plasmid DNA; test: Non-specific plasmid DNA cleavage under oxidizing conditions; type: biochemical; details: for cleavage of DNA without metalloligand: no metalloligand
# Description: Plasmid DNA at a concentration of 50 μM, bp was added to a reaction solution containing 20 mM HEPES, pH 7.3, and the metalloligands of Examples 1-4 and the reducing agent ascorbic acid. […] The metalloligands of examples 1 to 4 also degraded plasmid DNA completely in the presence of 10 μM H2O2.
# However, superoxide dismutase (SOD) and NaN3 inhibited oxidative DNA cleavage mediated by Cu(kanamycin A). Accordingly, it is believed that activated oxygen species (such as O2^− or ^1O2) are involved in plasmid cleavage when the metalloligand and the substrate DNA are reacted under oxidizing conditions.
# [3] = Stability of the metalloligands in aqueous solution; details: purified complex
# [4] = system: R23 RNA; test: Specific cleavage of 23-mer R23 RNA, FPLC analysis; type: biochemical
# Description: The metalloligand is added to a sample containing substrate RNA with the recognized binding motif. Preferably, the RNA is in an aqueous solution having a pH of from about 7 to about 8. Preferably, the reaction is conducted at a temperatures ranging from 4° C. to about 40° C.
# [5] = system: R23 RNA; test: Cleaving R23 RNA at select sites under oxidizing conditions; type: biochemical
# Description: Uniformly labeled R23 RNA was incubated at 37° C. for 1 hr with various concentrations of Cu(kanamycin A) in the presence and absence of the co-reactants H2O2 and ascorbate. Cleavage products were separated on a denaturing polyacrylamide gel. […] These sites are depicted in FIG. 1. […] RNA cleavage of 30% was observed by FPLC with 1 nM Cu(kanamycin A) after incubation at 37° C. for 1 hour. Cleavage efficiencies of approximately 25% were obtained for solutions containing 50 pM Cu(kanamycin A) and 100 μM ascorbate or 1 μM H2O2 following incubation for 2 h at 37° C. Thus, Cu(kanamycin A) is able to selectively cleave RNA at physiological pH and under mild oxidizing conditions.
# [6] = system: poly(C); test: Cleavage of poly(C); details: similar reaction conditions as R23
# [7] = system: linear oligo (A12-18); test: Cleavage of linear oligo (A12-18); details: similar reaction conditions as R23
# [8] = system: R23 RNA; details: cited from earlier work
compound,measurement,setting,value
Cu(neomycin B),concentration at which plasmid DNA was cleaved (as low as),[1],100 nM
"[Cu+2] [Cu^2+(aq), reference compound]",cleavage of DNA without metalloligand,[2]; Cu2+ and ascorbate,did not occur
same,cleavage of DNA without metalloligand,[2]; Cu2+(aq) alone,did not occur
Cu(neamine),time to appearance of open circular DNA (form II),"[1]; 0.1 μmolar complex, plasmid DNA 50 μM bp, 10 mM HEPES pH 7.3, 37 °C",within less than one hour
same,stability in aqueous solution,[3],stable in aqueous solution for more than one day
Cu(kanamycin A)2,concentration at which plasmid DNA was cleaved (as low as),[1],100 nM
Cu(kanamycin A),nicking of plasmid DNA,"[1]; 500 nM complex, 5 minutes, plasmid DNA 50 μM bp, 20 mM HEPES pH 7.3",At least some DNA was nicked
same,time to complete degradation of plasmid DNA,"[1]; 1 μM complex, plasmid DNA 50 μM bp, 20 mM HEPES pH 7.3",≤ 1 h
same,effect of quenchers on DNA cleavage,"[1]; addition of SOD, NaN3, DMSO, EtOH",not inhibited
same,effect of excess metal-free aminoglycoside on DNA cleavage,[1]; addition of excess metal-free aminoglycoside,inhibited cleavage
same,DNA cleavage under anaerobic conditions,[1]; argon atmosphere,not inhibited
same,conversion of supercoiled DNA to linear form,"[2]; 5 nM complex, 10 μM ascorbate, supercoiled DNA 51 μM base pair",Complete conversion
same,effect of hydroxy radical quenchers on oxidative DNA cleavage,[2]; DMSO and EtOH,did not inhibit
same,effect of SOD and NaN3 on oxidative DNA cleavage,[2]; superoxide dismutase (SOD) and NaN3,inhibited
same,cleavage of structured 23 mer RNA,"[4]; 10 nmol complex, pH 7.3, 37 °C, 90 minutes",Good results
same,hydrolysis of R23 RNA,"[4]; 20 nM complex, 23-mer RNA 30 μM base pair, 90 minutes, 20 mM HEPES pH 7.3, FPLC",54%
same,hydrolysis efficiency of R23 RNA,[4]; 100 nM complex instead of 20 nM,Hydrolysis efficiency increased
same,cleavage efficiency,"[5]; 50 pM complex, 100 μM ascorbate or 1 μM H2O2, 2 h, 37 °C",approximately 25%
same,RNA cleavage,"[5]; 1 nM complex, 37 °C, 1 hour, FPLC",30%
same,sites of cleavage in R23 RNA,"[5]; 37 °C, 1 hr, presence and absence of H2O2 and ascorbate, denaturing polyacrylamide gel",one in the loop region at G^15 and the other in the stem region at C^4
same,degradation of target RNA,"[5]; nanomolar complex, 100 μM ascorbate or 1 μM H2O2",extremely efficient degradation
same,cleavage of poly(C),[6],no cleavage
same,cleavage of linear oligo (A12-18),[7],no cleavage
same,stability in aqueous solution,[3],stable in aqueous solution for more than one day
NC[C@@H]1O[C@H](O[C@H]2[C@@H](O)[C@H](O[C@@H]3[C@@H](O)[C@H](N)C[C@H](N)[C@H]3O[C@H]3O[C@H](CN)[C@@H](O)[C@H](O)[C@H]3N)O[C@@H]2CO)[C@H](N)[C@@H](O)[C@@H]1O [neomycin B],binding affinity to R23 RNA,[8],high binding affinity

# — US6403777B1, “Metalloligands for cleaving nucleic acids” (The Ohio State University Research Foundation, priority 1999, dated 2002)
